Columns and labels:
Format in all cases: cell-based
[1] = test system: HCC78 NSCLC cells (with ROS1 rearrangement); experiment: MTT cytotoxicity assay on HCC78 NSCLC cells; details: Homo sapiens, 72 h, mean±SEM, read-out: IC50 (cell viability, MTT)
Protocol: (§1) HCC78 cells and CCD19-Lu cells were obtained from the American Type Culture Collection and cultured in environment of 5% CO2 at 37° C. in RPMI-1640 (GIBCO, Lift Technologies) medium supplemented with 10% fetal bovine serum (FBS) (GIBCO, Lift Technologies), 100 units/mL penicillin, and 100 μg/mL streptomycin (GIBCO, Lift Technologies), crizotinib was purchased from Selleck Chemicals.
(§2) For MTT assay, 3000 cells were seeded on 96-well plates, then treated with DMSO or various concentrations of the compound of Formula (V) for 72 h. At the end of the incubation, 10 μL of MTT (5 mg/mL; Sigma) was added into each well, and the plates were incubated for an additional 4 hours, then the dark blue crystals were dissolved in 100 μL of the resolved solution (10% SDS and 0.1 mM HCL). Finally, the absorbance was measured by a microplate reader at 570 nm (Tecan, Morrisville, N.C., USA). The cell viability was calculated relative to untreated controls, with results based on at least three independent experiments.

[2] = test system: normal lung cells (CCD19-Lu); experiment: MTT cytotoxicity assay on normal lung cells; details: Homo sapiens, CCD 19Lu, 72 h, 0-20 μM, read-out: IC50 (cell viability, MTT)
Protocol: as §1, §2

HCC78 cells [3] = experiment: Annexin-V FITC/PI flow cytometry apoptosis assay; details: HCC78 cells, 2.5, 5 and 10 μM, 24 h, compared to control group; concentration-dependent
Protocol: HCC78 cells (1.0×10^5 cells/well) were allowed to attach in a 6-well plates for 24 h, cells were treated with the compound of Formula (V) for 24 h. Subsequently, cells were trypsinized, washed with PBS and stained with 100 μL binding buffer containing 2 μL Annexin-V FITC and 4 μL propidine iodide (PI) incubated in the dark at room temperature for 15 min, before further addition of 400 μL of 1× Annexin-binding buffer. The stained cells were analyzed quantitatively using a Flow Cytometer (BD Biosciences, San Jose, Calif., USA). Data were analyzed by Flow Jo software.

HCC78 cells [4] = experiment: colony formation assay; details: HCC78 cells, 1.25, 2.5 and 5 μM, 10 days; dose-dependent
Protocol: Still further, inhibitory effect of the compound of Formula (V) on the colony formation in HCC78 cells has been tested to provide further evidence that the compound of Formula (V) inhibits the formation of colonies of cancerous cell to an exceptional degree, too.
HCC78 cells were seeded on a six-well plate at a density of 500 cells per well. The cells were exposed to various concentrations of the compound of Formula (V). After 10 days, the colonies were fixed with 4% paraformaldehyde and stained with a 0.5% (0.5% w/v) crystal violet solutions, the number of colonies >50 was counted under a dissecting microscope and surviving fractions were calculated.

[5] = test system: ROS1 phosphorylation and ROS1 downstream signaling molecules pERK1/2, pSTAT3 and pAKT; experiment: western blot of ROS1 phosphorylation and downstream signaling; details: HCC78 cells, 2.5, 5 and 10 μM, dose-dependent
Protocol: Additionally, the suppression of ROS1 phosphorylation as well as its downstream signaling pathway by the compound of Formula (V) has been studied.
Cells exposed to different concentrations of compound of Formula (V), namely 2.5, 5 and 10 μM or 2.5 μM crizotinib as described above and a control group were washed twice with cold PBS then lysed in RIPA lysis buffer containing protease and phosphatase inhibitors, protein concentration of the cell lysates were measured using the Bio-Rad protein Assay kit (Bio-Rad, Philadelphia, Pa., USA). After equalizing the protein concentrations of the samples, 5× laemmli buffer was added and boiled at 100° C. for 5 min. Equal amounts of protein (20-40 μg per lane) were separated with a 10% SDS-PAGE gel, then the separated proteins were transferred to a nitrocellulose (NC) membrane, which was then exposed to 5% non-fat dry milk in TBS containing 0.1% Tween 20 (0.1% TBST) for 1 hour at room temperature with constant agitation, followed by overnight incubation at 4° C. with primary antibodies, after washing 3 times by TBST, the membranes were incubated with secondary rabbit or mouse fluorescent antibodies, the signal intensity of the membranes was detected by an LI-COR Odessy scanner (Belfast, Me., USA). Antibodies against GAPDH, p-AKT, p-ROS1, ROS1, p-ERK, ERK, p-STAT3, STAT3 were purchased from Cell signaling Technology. […]

`CCN(CC)CCNC(=O)c1cc2c(=O)n(C)c3cc(Cl)ccc3c2s1` [compound of Formula (V)] was tested, and the IC50 [1] was 6.35 ± 1.44 µM, the IC50 [2] was over 20 µM and the induction of apoptosis (HCC78 cells [3]) was “induced significant levels of cell apoptosis compared to the control group”. For the same compound, the “formation of HCC78 cell colonies” value (HCC78 cells [4]) was “advantageously inhibited the formation of HCC78 cell colonies”, the “ROS1 downstream signaling molecules pERK1/2, pSTAT3 and pAKT” value [5] was “inhibition” and the ROS1 phosphorylation [5] was “inhibition of ROS1 phosphorylation”.

Reference: patent US9962378B2, “ROS1 inhibitor and its use” (Macau University of Science and Technology, priority 2015, dated 2018)
